According to patent US9000002B2, “N1-substituted-5-fluoro-2-oxopyrimidinone-1(2H)-carboxamide derivatives” (Dow Agrosciences LLC, priority 2009, dated 2015):
Read-outs that look alike come from different tables or passages of the source.

Legend:
[1] = system: Mycosphaerella graminicola; Anamorph: Septoria tritici; Bayer Code SEPTTR; assay: Evaluation of fungicidal activity: leaf blotch of wheat (SEPTTR), wheat plants variety Yuma; format: in vivo; conditions: Zymoseptoria tritici
Protocol: Evaluation of Fungicidal Activity: Leaf Blotch of Wheat (Mycosphaerella graminicola; Anamorph: Septoria tritici; Bayer Code […]) Wheat plants (variety Yuma) were grown from seed in a greenhouse in 50% mineral soil/50% soil-less Metro mix until the first leaf was fully emerged, with 7-10 seedlings per pot. These plants were inoculated with an aqueous spore suspension of Septoria tritici either prior to or after fungicide treatments. After inoculation the plants were kept in 100% relative humidity (one day in a dark dew chamber followed by two to three days in a lighted dew chamber) to permit spores to germinate and infect the leaf. The plants were then transferred to a greenhouse for disease to develop. The following table presents the activity of typical compounds of the present disclosure when evaluated in these experiments. The effectiveness of the test compounds in controlling disease was determined by assessing the severity of disease on treated plants, then converting the severity to percent control based on the level of disease on untreated, inoculated plants. • In each case of Table II the rating scale is as follows: […]

[2] = 24 h, One-Day Protectant (1DP), 100 ppm, wheat plants, percent control vs untreated inoculated plants, read-out: SEPTTR 100 PPM 1DP (% Disease Control rating)
[3] = 72 h, Three-Day Curative (3DC), 100 ppm, wheat plants, percent control vs untreated inoculated plants, read-out: SEPTTR 100 PPM 3DC (% Disease Control rating)

| Compound | pest or weed control at 100 ppm [1, 2] [%] | pest or weed control at 100 ppm [1, 3] [%] | melting point [°C] | pest or weed control at 100 ppm ([1]; 24 h, read-out: SEPTTR 100 PPM 1DP (% Disease Control rating)) [%] | pest or weed control at 100 ppm ([1]; 72 h, read-out: SEPTTR 100 PPM 3DC (% Disease Control rating)) [%] |
| --- | --- | --- | --- | --- | --- |
| Nc1nc(=O)n(C(=O)Nc2ccc3sccc3c2)cc1F [Compound 19] | 76 to 100 | 76 to 100 | 282 to 284 |  |  |
| Nc1nc(=O)n(C(=O)Nc2ccsc2)cc1F [Compound 20] | 76 to 100 | 76 to 100 | 263 to 265 |  |  |
| Nc1nc(=O)n(C(=O)Nc2ccc(F)cc2)cc1F [Compound 21] | 76 to 100 | 76 to 100 | 257 to 259 |  |  |
| Nc1nc(=O)n(C(=O)NCc2ccccc2F)cc1F [Compound 22] | 76 to 100 | 76 to 100 | 260 to 262 |  |  |
| CCCNC(=O)n1cc(F)c(N)nc1=O [Compound 23] | 76 to 100 | 76 to 100 | 290 to 293 |  |  |
| CC(C)NC(=O)n1cc(F)c(N)nc1=O [Compound 24] | 76 to 100 | 76 to 100 | 291 to 294 |  |  |
| CCOC(=O)CNC(=O)n1cc(F)c(N)nc1=O [Compound 25] | 76 to 100 | 76 to 100 | 220 to 224 |  |  |
| CSCCNC(=O)n1cc(F)c(N)nc1=O [Compound 26] | 76 to 100 | 76 to 100 | 237 to 239 |  |  |
| COCCCNC(=O)n1cc(F)c(N)nc1=O [Compound 27] | 76 to 100 | 76 to 100 | 295 to 298 |  |  |
| O=C(Nc1ccccc1)n1cc(F)c(NCc2ccccc2F)nc1=O [Compound 28, 5-fluoro-4-(2-fluorobenzylamino)-2-oxo-N-phenylpyrimidine-1(2H)-carboxamide] |  |  | 154 to 157 | 0 to 25 | 26 to 50 |
| O=C(Nc1ccc(F)cc1F)n1cc(F)c(NCc2ccccc2F)nc1=O [Compound 29] | 0 to 25 | 26 to 50 | 150 to 153 |  |  |
| Cc1ccc(NC(=O)n2cc(F)c(NCc3ccccc3F)nc2=O)cc1 [Compound 30] | 0 to 25 | 26 to 50 | 158 to 162 |  |  |
| O=C(Nc1cccc(Cl)c1)n1cc(F)c(NCc2ccccc2F)nc1=O [Compound 31] | 0 to 25 | 0 to 25 | 158 to 160 |  |  |
| CCCNC(=O)n1cc(F)c(NCc2ccccc2F)nc1=O [Compound 32] | 26 to 50 | 51 to 75 | 113 to 116 |  |  |
| CCN(CC)C(=S)n1cc(F)c(/N=C/N(C)C)nc1=O [Compound 33, (E)-4-((dimethylamino)methyleneamino)-N,N-diethyl-5-fluoro-2-oxopyrimidine-1(2H)-carbothioamide] | 0 to 25 | 26 to 50 | 118 to 123 |  |  |
| CN(C(=S)n1cc(F)c(N)nc1=O)c1ccccc1 [Compound 34, 4-amino-5-fluoro-N-methyl-2-oxo-N-phenylpyrimidine-1(2H)-carbothioamide] | 76 to 100 | 76 to 100 | 192 to 196 |  |  |
| CN(C(=S)n1cc(F)c(N)nc1=O)c1cccc(C(F)(F)F)c1 [Compound 35] | 76 to 100 | 76 to 100 | 126 to 131 |  |  |
| CN(C(=S)n1cc(F)c(N)nc1=O)c1cc(Cl)cc(Cl)c1 [Compound 36] | 76 to 100 | 76 to 100 | 200 to 203 |  |  |

| Compound | pest or weed control at 100 ppm [1, 2] [%] | pest or weed control at 100 ppm [1, 3] [%] | melting point [°C] | pest or weed control at 100 ppm ([1]; 24 h, read-out: SEPTTR 100 PPM 1DP (% Disease Control rating)) [%] | pest or weed control at 100 ppm ([1]; 72 h, read-out: SEPTTR 100 PPM 3DC (% Disease Control rating)) [%] |
| --- | --- | --- | --- | --- | --- |
| CCN(C(=S)n1cc(F)c(N)nc1=O)c1ccccc1 [Compound 37] | 76 to 100 | 76 to 100 | 223 to 226 |  |  |
| CCNC(=O)n1cc(F)c(NC(C)=O)nc1=O [Compound 38, 4-acetamido-N-ethyl-5-fluoro-2-oxopyrimidine-1(2H)-carboxamide] | 76 to 100 | 76 to 100 | 233 to 235 |  |  |
| CCCNC(=O)n1cc(F)c(NC(C)=O)nc1=O [Compound 39] | 76 to 100 | 76 to 100 | 233 to 235 |  |  |
| CCCNC(=O)n1cc(F)c(NC(=O)c2ccccc2)nc1=O [Compound 40] | 76 to 100 | 76 to 100 | 258 to 260 |  |  |
| CCCNC(=O)n1cc(F)c(NC(=O)C(C)C)nc1=O [Compound 41] | 76 to 100 | 76 to 100 | 226 to 228 |  |  |
| CCCNC(=O)n1cc(F)c(NC(=O)c2ccccc2Cl)nc1=O [Compound 42] | 26 to 50 | 76 to 100 | 239 to 241 |  |  |
| CCCNC(=O)n1cc(F)c(NC(=O)Cc2ccc(OC)cc2)nc1=O [Compound 43] | 76 to 100 | 76 to 100 | 227 to 229 |  |  |
| CCNC(=O)n1cc(F)c(NC(=O)c2ccccc2)nc1=O [Compound 44] | 76 to 100 | 76 to 100 | 249 to 251 |  |  |
| CCNC(=O)n1cc(F)c(NC(=O)C(C)C)nc1=O [Compound 45] | 76 to 100 | 76 to 100 | 226 to 228 |  |  |
| CCNC(=O)n1cc(F)c(NC(=O)c2ccccc2Cl)nc1=O [Compound 46] | 76 to 100 | 51 to 75 | 239 to 241 |  |  |
| CC(=O)Nc1nc(=O)n(C(=O)NCc2ccc(Cl)cc2)cc1F [Compound 47] | 76 to 100 | 76 to 100 | 170 to 172 |  |  |
| O=C(Nc1nc(=O)n(C(=O)NCc2ccc(Cl)cc2)cc1F)c1ccccc1 [Compound 48] | 76 to 100 | 76 to 100 | 210 to 212 |  |  |
| CCNC(=O)n1cc(F)c(NC(=O)NCc2ccccc2OC)nc1=O [Compound 49, N-ethyl-5-fluoro-4-(3-(2-methoxybenzyl)ureido)-2-oxopyrimidine-1(2H)-carboxamide] | 0 to 25 | 0 to 25 | 248 to 250 |  |  |
| COc1ccccc1CNC(=O)Nc1nc(=O)n(C(=O)NC(C)C)cc1F [Compound 50] | 0 to 25 | 0 to 25 | 251 to 253 |  |  |
| CCCNC(=O)n1cc(F)c(NC(=O)NCc2ccccc2OC)nc1=O [Compound 51] | 0 to 25 | 0 to 25 | 248 to 250 |  |  |
| CCCCCNC(=O)n1cc(F)c(NC(=O)NCc2ccccc2OC)nc1=O [Compound 52] | 0 to 25 | 0 to 25 | 248 to 250 |  |  |
| COc1ccccc1CNC(=O)Nc1nc(=O)n(C(=O)NCc2ccccc2F)cc1F [Compound 53] | 0 to 25 | 0 to 25 | 229 to 231 |  |  |
